This assay deals with Epidermal growth factor receptor (Homo sapiens) (UniProt P00533). The experiment in a line: Inhibition of wild-type EGFR (unknown origin) assessed as enzyme residual activity at 10 uM for 60 mins by microplate scintillation counter in presence of [gamma-33P]-ATP.
Sequence of Epidermal growth factor receptor (Homo sapiens) (P00533 whole entry): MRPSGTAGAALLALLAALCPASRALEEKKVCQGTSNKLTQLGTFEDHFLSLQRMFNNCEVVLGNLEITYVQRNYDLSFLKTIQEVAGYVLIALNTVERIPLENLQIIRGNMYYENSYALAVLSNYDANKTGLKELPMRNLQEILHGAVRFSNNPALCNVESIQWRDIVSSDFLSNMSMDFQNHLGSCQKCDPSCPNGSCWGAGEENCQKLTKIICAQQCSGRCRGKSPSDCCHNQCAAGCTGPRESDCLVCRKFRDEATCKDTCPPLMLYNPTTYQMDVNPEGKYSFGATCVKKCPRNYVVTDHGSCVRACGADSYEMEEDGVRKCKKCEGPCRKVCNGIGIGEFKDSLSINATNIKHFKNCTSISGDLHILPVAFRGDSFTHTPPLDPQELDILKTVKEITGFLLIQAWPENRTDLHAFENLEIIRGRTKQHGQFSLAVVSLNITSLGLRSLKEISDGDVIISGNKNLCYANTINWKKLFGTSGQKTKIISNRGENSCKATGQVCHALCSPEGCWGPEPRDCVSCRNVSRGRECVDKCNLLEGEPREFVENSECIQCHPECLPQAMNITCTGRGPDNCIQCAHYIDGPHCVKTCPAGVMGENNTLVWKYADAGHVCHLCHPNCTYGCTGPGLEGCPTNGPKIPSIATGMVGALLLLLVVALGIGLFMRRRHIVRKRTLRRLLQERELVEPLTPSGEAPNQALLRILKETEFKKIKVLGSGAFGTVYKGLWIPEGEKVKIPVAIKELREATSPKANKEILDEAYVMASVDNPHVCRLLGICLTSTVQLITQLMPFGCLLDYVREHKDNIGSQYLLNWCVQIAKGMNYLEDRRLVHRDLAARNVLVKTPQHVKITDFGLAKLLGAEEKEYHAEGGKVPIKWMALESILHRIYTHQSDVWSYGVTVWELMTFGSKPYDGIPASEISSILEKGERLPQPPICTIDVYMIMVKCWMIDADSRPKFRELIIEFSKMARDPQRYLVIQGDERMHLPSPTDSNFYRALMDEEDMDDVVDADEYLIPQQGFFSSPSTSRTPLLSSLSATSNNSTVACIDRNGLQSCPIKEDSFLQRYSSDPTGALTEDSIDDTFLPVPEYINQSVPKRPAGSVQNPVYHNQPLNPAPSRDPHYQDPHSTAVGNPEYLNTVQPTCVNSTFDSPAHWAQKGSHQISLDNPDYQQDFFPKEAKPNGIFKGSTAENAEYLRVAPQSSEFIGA
For `Cn1c(=O)c(-c2c(Br)cccc2Br)cc2c(N)nc(Nc3ccccc3)nc21`, the Activity is 3%.
With `Cn1c(=O)c(-c2ccccc2)cc2c(N)nc(Nc3ccccc3)nc21` the figure was 49%; with `Cn1c(=O)c(-c2c(Cl)cccc2Cl)cc2c(N)nc(Nc3ccccc3)nc21`, 14%; with `Cn1c(=O)c(-c2c(F)cccc2C(F)(F)F)cc2c(N)nc(Nc3ccccc3)nc21`, 61%.

Source of the values: ChEMBL document CHEMBL3751720, “Investigating molecular dynamics-guided lead optimization of EGFR inhibitors” (Bioorg Med Chem, 2016).
